Assay results published in publication PMC13181761, “New Analogs of the Compstatin Family of Clinical Complement Inhibitors with Low Picomolar Target Affinity” (Journal of Medicinal Chemistry, 2026).
Several values for one entry are separate records, joined by “and”; a condition that tells them apart may be missing. Equal values may be shown once. Read-outs that look alike come from different tables or passages of the source. Each block holds one molecule with its values, some of them ahead of it. Where a SMILES comes first, the peptide text is derived from it. Bridges are numbered along the chain shown (N, C = ends). [ ]: non-standard residue; d: D form. Trp(1-Me) = Cn1cc(C[C@H](N)C(=O)O)c2ccccc21; Nva(3-Et) = CCC(CC)[C@H](N)C(=O)O; NMeI = CC[C@H](C)[C@H](NC)C(=O)O; aIle = CC[C@@H](C)[C@H](N)C(=O)O; Sar = CNCC(=O)O

How the values were obtained:
human C3b = molecular target: T1, human C3b (Homo sapiens, UniProt P01024); assay: SPR kinetic binding to immobilized human C3b; conditions: for koff: read-out: dissociation rate k d
T1 construct: purchased Complement Technology, Tyler, TX, USA
Method: Experiments were conducted at 25 °C in HBST buffer (10 mM HEPES, 150 mM NaCl, and 0.05% Tween-20, pH 7.4; XanTec bioanalytics). Human C3b (Complement Technology, Tyler, TX, USA) was immobilized via amine-reactive coupling. […] Individual peptide samples were injected for 120 s, followed by a 180 s dissociation phase. […] Signals from the reference cell and buffer blank injections were subtracted within each dilution series to correct for buffer effects and injection artifacts. Data were fitted to a Langmuir 1:1 binding model to calculate association (k a) and dissociation (k d) rate constants, and the equilibration constant K D is calculated based on the equation: K D = k d/k a. In the case of Cp40 derivatives and Cp60, a single-cycle approach was used for kinetic analysis by injecting 5 increasing concentrations of each compound (0.5-40 nM) consecutively without a regeneration period in between injections. Individual injections within a cycle were 120 s long with a 5 min dissociation phase between injections. […] Analog Cp40 was included in each experimental series as a reference and internal control. Signals from the reference cell and buffer blank injections were subtracted to correct for buffer effects and injection artifacts. Kinetic data were processed in BiaEvaluation (Cytiva) using single-cycle evaluation by global fitting each data set to a Langmuir 1:1 binding model. The reported kinetic parameters (Tables and ) indicate the mean values and standard deviations of three independent experiments. SPR sensorgrams are provided in the Supporting Information.

[1] = cynomolgus monkey, in vivo, sc, 2 mg/kg
[2] = cynomolgus monkey, in vivo, 2 mg/kg
[3] = tested on: classical pathway complement activation; assay: Classical pathway (CP) complement activation ELISA in normal human serum; type: biochemical
Method: The inhibitory activity of selected peptides in preventing pathway-specific complement activation was evaluated using ELISA as previously described. All assays used normal human serum (NHS), pooled from five unrelated, anonymized healthy donors, obtained with informed consent according to the local ethics committee, and following the guidelines of the Declaration of Helsinki (Blutspendezentrum Basel, Switzerland). To assess classical pathway activity, flat-bottom MaxiSorp 96-well plates (Thermo Fisher) were coated overnight at room temperature with 33 μg/mL IgM (Sigma) in a 0.1 M sodium carbonate buffer. Plates were washed 5 times with phosphate-buffered saline (Dubleccòs, Bioconcept) supplemented with 0.05% Tween-20 (PBS-T). Serial dilutions of peptides were prepared in 1% (v/v) NHS using HBBT++ assay buffer (10 mM HEPES, 150 mM NaCl, pH 7.4, 0.5% BSA, 0.15 mM CaCl2, 0.5 mM MgCl2, 0.1% Tween-20), with samples diluted in 1% (v/v) NHS. Negative controls included each inhibitor in assay buffer alone, assay buffer only, and 1% (v/v) NHS with 10 mM EDTA. HBBT++ with 1% (v/v) pooled NHS served as the 100%-control. After incubating for 1 h at 37 °C and shaking at 700 rpm, plates were washed 5 times with PBS-T. Next, 100 μL of biotinylated monoclonal mouse antihuman TCC antibody (1:1000, Hycult, clone: aE11) to detect terminal complement complexes was added to each well, followed by 1 h incubation at room temperature while shaking. After another 5 washes with PBS-T, 100 μL of HRP-conjugated NeutrAvidin (1:10,000, Invitrogen) was added to each well and incubated for 20 min at room temperature while shaking. Plates were washed 5 more times with PBS-T before adding 100 μL of 1-Step Turbo TMB-ELISA solution (Thermo Scientific) to each well. The reaction was allowed to develop until a light blue color appeared, and then stopped with 100 μL of 2 M sulfuric acid. Colorimetric detection was performed at 450 nm by using a plate reader (Synergy HT, Biotek). All assays were conducted in triplicate and normalized against 100% (no inhibitor, 1% (v/v) serum in buffer) and 0% (1% (v/v) serum in EDTA buffer) controls. In the cases of Cp60 and Cp40, 5% (v/v) NHS was used instead of 1% (v/v) NHS in some assays. Inhibition curves were fitted using nonlinear regression to a normalized variable slope model in Prism (v9-10, GraphPad).

[4] = SPR screening at 2 and 1 μM, series up to 16 μM, read-out: affinity hC3b (class symbol N.B./W.B.)
[5] = SPR, 1:1 Langmuir fit, average of 3 independent experiments, SD in brackets
[6] = SPR, 1:1 Langmuir fit, average of 3 independent experiments, SD in brackets, read-out: K D, affinity hC3b

T1 sequence (P01024 23-667 limits assumed): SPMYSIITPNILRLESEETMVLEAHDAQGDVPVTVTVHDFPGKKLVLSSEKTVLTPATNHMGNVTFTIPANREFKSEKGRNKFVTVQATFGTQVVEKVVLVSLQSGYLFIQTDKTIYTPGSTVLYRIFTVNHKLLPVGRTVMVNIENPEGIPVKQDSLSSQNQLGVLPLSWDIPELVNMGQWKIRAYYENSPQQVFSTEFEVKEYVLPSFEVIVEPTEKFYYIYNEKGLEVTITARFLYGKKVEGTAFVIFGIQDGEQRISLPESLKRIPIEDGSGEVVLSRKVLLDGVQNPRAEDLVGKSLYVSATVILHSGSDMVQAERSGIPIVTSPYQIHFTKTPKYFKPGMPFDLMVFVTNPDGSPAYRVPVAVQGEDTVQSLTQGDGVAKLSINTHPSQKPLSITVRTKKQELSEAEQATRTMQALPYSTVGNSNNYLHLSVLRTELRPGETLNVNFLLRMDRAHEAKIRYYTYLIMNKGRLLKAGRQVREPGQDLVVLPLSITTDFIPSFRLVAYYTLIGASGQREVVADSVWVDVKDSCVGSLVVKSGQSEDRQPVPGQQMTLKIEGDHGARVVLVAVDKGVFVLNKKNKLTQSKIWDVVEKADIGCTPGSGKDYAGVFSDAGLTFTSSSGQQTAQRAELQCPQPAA
T1 sequence (P01024 749-1663 partner limits assumed): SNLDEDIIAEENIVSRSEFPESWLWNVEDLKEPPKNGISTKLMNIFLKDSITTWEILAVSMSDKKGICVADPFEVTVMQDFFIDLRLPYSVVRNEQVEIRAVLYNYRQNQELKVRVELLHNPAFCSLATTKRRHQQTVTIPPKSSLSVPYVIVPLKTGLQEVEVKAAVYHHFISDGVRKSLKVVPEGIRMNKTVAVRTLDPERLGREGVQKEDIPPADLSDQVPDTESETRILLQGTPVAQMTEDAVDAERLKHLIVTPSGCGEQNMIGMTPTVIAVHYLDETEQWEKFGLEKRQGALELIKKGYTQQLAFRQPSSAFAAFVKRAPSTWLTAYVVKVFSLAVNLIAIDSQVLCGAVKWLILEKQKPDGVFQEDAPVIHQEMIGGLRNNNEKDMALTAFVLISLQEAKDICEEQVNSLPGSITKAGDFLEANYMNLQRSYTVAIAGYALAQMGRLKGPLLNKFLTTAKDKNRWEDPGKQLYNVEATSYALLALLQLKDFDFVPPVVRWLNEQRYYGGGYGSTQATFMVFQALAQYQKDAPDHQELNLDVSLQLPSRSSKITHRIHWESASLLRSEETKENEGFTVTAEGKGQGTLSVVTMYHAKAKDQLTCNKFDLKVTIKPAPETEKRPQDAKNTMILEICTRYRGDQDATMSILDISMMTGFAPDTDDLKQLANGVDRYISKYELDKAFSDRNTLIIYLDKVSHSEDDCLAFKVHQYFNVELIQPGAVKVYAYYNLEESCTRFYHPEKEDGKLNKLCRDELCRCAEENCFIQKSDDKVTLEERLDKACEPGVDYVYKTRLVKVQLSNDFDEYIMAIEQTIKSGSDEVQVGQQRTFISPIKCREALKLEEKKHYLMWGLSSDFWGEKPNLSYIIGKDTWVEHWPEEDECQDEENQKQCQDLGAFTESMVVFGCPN

SMILES: CC[C@H](C)[C@H](NC(C)=O)C(=O)N[C@H]1CSSC[C@@H](C(=O)N[C@H](C(N)=O)[C@@H](C)O)NC(=O)[C@H](CCCNC(=N)N)NC(=O)[C@H](Cc2c[nH]cn2)NC(=O)[C@H](C)NC(=O)CNC(=O)[C@H](Cc2c[nH]c3ccccc23)NC(=O)[C@H](CC(=O)O)NC(=O)[C@H](CCC(N)=O)NC(=O)[C@H](Cc2c[nH]c3ccccc23)NC(=O)C(C)(C)NC1=O [Cp01-Val3Aib]
Kd (human C3b; [4]): > 2000 nM

SMILES: CC[C@H](C)[C@H](NC(C)=O)C(=O)N[C@H]1CSSC[C@@H](C(=O)N[C@H](C(N)=O)[C@@H](C)O)NC(=O)[C@H](CCCNC(=N)N)NC(=O)[C@H](Cc2c[nH]cn2)NC(=O)[C@H](C)NC(=O)CNC(=O)[C@H](Cc2c[nH]c3ccccc23)NC(=O)[C@H](CC(=O)O)NC(=O)[C@H](CCC(N)=O)NC(=O)[C@H](Cc2c[nH]c3ccccc23)NC(=O)[C@H](C)NC1=O [Cp01-Val3Ala]
Kd (human C3b; [4]): > 2000 nM

SMILES: CC[C@H](C)[C@H](NC(C)=O)C(=O)N[C@H]1CSSC[C@@H](C(=O)N[C@H](C(N)=O)[C@@H](C)O)NC(=O)[C@H](CCCNC(=N)N)NC(=O)[C@H](Cc2c[nH]cn2)NC(=O)[C@H](C)NC(=O)CNC(=O)[C@H](Cc2c[nH]c3ccccc23)NC(=O)[C@H](CC(=O)O)NC(=O)[C@H](CCC(N)=O)NC(=O)[C@H](Cc2c[nH]c3ccccc23)NC(=O)[C@H](CC(C)C)NC1=O [Cp01-Val3Leu] (Ac-ICLWQDWGAHRCT-NH2; disulfide 2-12)
k a, affinity hC3b (human C3b; [5]): 2.0(0.5) 10^5 M^–1 s^–1 | k d, affinity hC3b (human C3b; [5]): 11(1) 10^–2 s^–1 | Kd (human C3b; [6]): 552 nM

SMILES: CC[C@H](C)[C@H](NC(C)=O)C(=O)N[C@H]1CSSC[C@@H](C(=O)N[C@H](C(N)=O)[C@@H](C)O)NC(=O)[C@H](CCCNC(=N)N)NC(=O)[C@H](Cc2c[nH]cn2)NC(=O)[C@H](C)NC(=O)CNC(=O)[C@H](Cc2c[nH]c3ccccc23)NC(=O)[C@H](CC(=O)O)NC(=O)[C@H](CCC(N)=O)NC(=O)[C@H](Cc2c[nH]c3ccccc23)NC(=O)[C@H](Cc2ccccc2)NC1=O [Cp01-Val3Phe]
Kd (human C3b; [4]): > 2000 nM

SMILES: CC[C@H](C)[C@H](NC(C)=O)C(=O)N[C@H]1CSSC[C@@H](C(=O)N[C@H](C(N)=O)[C@@H](C)O)NC(=O)[C@H](CCCNC(=N)N)NC(=O)[C@H](Cc2c[nH]cn2)NC(=O)[C@H](C)NC(=O)CNC(=O)[C@H](Cc2c[nH]c3ccccc23)NC(=O)[C@H](CC(=O)O)NC(=O)[C@H](CCC(N)=O)NC(=O)[C@H](Cc2c[nH]c3ccccc23)NC(=O)[C@H](Cc2c[nH]c3ccccc23)NC1=O [Cp01-Val3Trp]
Kd (human C3b; [4]): > 2000 nM

Further lines, with some results ahead:

Kd (human C3b; [6]): 1.5 nM | koff (human C3b; SPR): 0.002 s⁻¹
SMILES: CC[C@H](C)[C@H](NC(C)=O)C(=O)N[C@H]1CSSC[C@@H](C(=O)N[C@H](C(N)=O)[C@@H](C)O)NC(=O)[C@H](CCCNC(=N)N)NC(=O)[C@H](Cc2c[nH]cn2)NC(=O)[C@H](C)NC(=O)CNC(=O)[C@H](Cc2c[nH]c3ccccc23)NC(=O)[C@H](CC(=O)O)NC(=O)[C@H](CCC(N)=O)NC(=O)[C@H](Cc2cn(C)c3ccccc23)NC(=O)[C@H]([C@@H](C)CC)NC1=O [Cp05-Val3Ile] (Ac-ICI[Trp(1-Me)]QDWGAHRCT-NH2; disulfide 2-12)

k a, affinity hC3b (human C3b; [5]): 4.3(0.7) 10^5 M^–1 s^–1 | k d, affinity hC3b (human C3b; [5]): 0.6(0.1) 10^–2 s^–1
SMILES: CCC(CC)[C@@H]1NC(=O)[C@@H](NC(=O)[C@@H](NC(=O)[C@H](N)Cc2ccc(O)cc2)[C@@H](C)CC)CSSC[C@@H](C(=O)N(C)[C@H](C(N)=O)[C@@H](C)CC)NC(=O)[C@H](CCCNC(=N)N)NC(=O)[C@H](Cc2c[nH]cn2)NC(=O)[C@H](C)NC(=O)CN(C)C(=O)[C@H](Cc2c[nH]c3ccccc23)NC(=O)[C@H](CC(=O)O)NC(=O)[C@H](CCC(N)=O)NC(=O)[C@H](Cc2cn(C)c3ccccc23)NC1=O [Cp40-Val3Dea] (H-[dY]IC[Nva(3-Et)][Trp(1-Me)]QDW[Sar]AHRC[NMeI]-NH2; disulfide 3-13)

k a, affinity hC3b (human C3b; [5]): 4.6(0.7) 10^5 M^–1 s^–1 | k d, affinity hC3b (human C3b; [5]): 0.7(0.3) 10^–2 s^–1 | Kd (human C3b; [6]): 15.6 nM
SMILES: CC[C@@H](C)[C@@H]1NC(=O)[C@@H](NC(=O)[C@@H](NC(=O)[C@H](N)Cc2ccc(O)cc2)[C@@H](C)CC)CSSC[C@@H](C(=O)N(C)[C@H](C(N)=O)[C@@H](C)CC)NC(=O)[C@H](CCCNC(=N)N)NC(=O)[C@H](Cc2c[nH]cn2)NC(=O)[C@H](C)NC(=O)CN(C)C(=O)[C@H](Cc2c[nH]c3ccccc23)NC(=O)[C@H](CC(=O)O)NC(=O)[C@H](CCC(N)=O)NC(=O)[C@H](Cc2cn(C)c3ccccc23)NC1=O [Cp40-Val3aIle] (H-[dY]IC[aIle][Trp(1-Me)]QDW[Sar]AHRC[NMeI]-NH2; disulfide 3-13)

AUC0-120h [1]: 401 µM·h | AUC0-∞ [1]: 250 µM·h | AUC(0-t) ([2]; AUC0–120h, range over both animals): 230 to 400 µM·h | Tmax ([2]; sc): 2 h | AUC(0-t) ([2]; sc, AUC0-120h): 228 µM·h | AUC(0-inf) ([2]; sc, AUC0-∞): 479 µM·h | Cmax ([2]; sc, Cmax): 7.52 µM | half-life ([2]; sc, t 1/2, terminal elimination phase, range over both animals): 30 to 40 h | half-life ([2]; sc, t½): 30.8 h
SMILES: CC[C@H](C)[C@H](NC(=O)[C@H](N)Cc1ccc(O)cc1)C(=O)N[C@H]1CSSC[C@@H](C(=O)N(C)[C@H](C(=O)N[C@@H](CCCCN)C(=O)N[C@@H](CCCCN)C(N)=O)[C@@H](C)CC)NC(=O)[C@H](CCCNC(=N)N)NC(=O)[C@H](Cc2c[nH]cn2)NC(=O)[C@H](C)NC(=O)CN(C)C(=O)[C@H](Cc2c[nH]c3ccccc23)NC(=O)[C@H](CC(=O)O)NC(=O)[C@H](CCC(N)=O)NC(=O)[C@H](Cc2cn(C)c3ccccc23)NC(=O)[C@H]([C@@H](C)CC)NC1=O [Cp60-KK] (H-[dY]ICI[Trp(1-Me)]QDW[Sar]AHRC[NMeI]KK-NH2; disulfide 3-13)

fold enhancement in binding affinity of Cp60 over Cp40 (human C3b; K D ratio vs Cp40): > 8 fold and 10 fold | k a, affinity hC3b (human C3b; [5]): 17.6(1.4) 10^5 M^–1 s^–1 | k d, affinity hC3b (human C3b; [5]): 0.01 10^–2 s^–1 | k d, affinity hC3b (human C3b; SPR, 1:1 Langmuir fit, average of 3 independent experiments, SD in brackets, listed as Cp40 Ile): 0.01(0.0) 10^–2 s^–1 | target residence (τ) (human C3b; SPR, C3b): exceeding 100 min | koff (human C3b; SPR): 0.0001 s⁻¹
SMILES: CC[C@H](C)[C@H](NC(=O)[C@H](N)Cc1ccc(O)cc1)C(=O)N[C@H]1CSSC[C@@H](C(=O)N(C)[C@H](C(N)=O)[C@@H](C)CC)NC(=O)[C@H](CCCNC(=N)N)NC(=O)[C@H](Cc2c[nH]cn2)NC(=O)[C@H](C)NC(=O)CN(C)C(=O)[C@H](Cc2c[nH]c3ccccc23)NC(=O)[C@H](CC(=O)O)NC(=O)[C@H](CCC(N)=O)NC(=O)[C@H](Cc2cn(C)c3ccccc23)NC(=O)[C@H]([C@@H](C)CC)NC1=O [Cp60] (H-[dY]ICI[Trp(1-Me)]QDW[Sar]AHRC[NMeI]-NH2; disulfide 3-13)
CP inhibition compared with Cp40 ([3]; CP ELISA, 1% human serum): did not show improved CP inhibition | IC50 ([3]; CP ELISA, 5% human serum): 97 nM | fold enhancement in inhibitory potency of Cp60 over Cp40 ([3]; IC50 ratio vs Cp40): < 2 fold
